Measured values reported in US20130289070A1, “Use of Levocabastine for Modulating Generation of Pro-Inflammatory Cytokines” (Bausch & Lomb Incorporated, priority 2007, published 2013).

System: EoL-1 (human eosinophilic leukaemia cell line) cells
Experiment: TNF-α-induced cytokine release, EoL-1 cells differentiated with PMA (Luminex)
Assay type: cell-based
Design: key to IL-1α (PMA), p of decrement / IL-1β (PMA), p of decrement / IL-1ra (PMA), p of decrement / IL-5 (PMA), p of decrement / IL-7 (PMA), p of decrement / IL-8 (PMA), p of decrement / IP-10 (PMA), p of decrement / MCP-1 (PMA), p of decrement / MIP-1β (PMA), p of decrement / RANTES (PMA), p of decrement / VEGF (PMA), p of decrement / Fractalkine (PMA), p of decrement / MIP-1α (PMA), p of decrement: ns = non significant
Conditions: 24 h
Protocol: EoL-1 (human eosinophilic leukaemia cell line) cells (Saito et al., 1985; Mayumi, 1992) were maintained in RPMI-1640 medium with L-glutamine supplemented with 10% (v/v) FBS at 37° C. in a humidified atmosphere with 5% CO2. Where indicated, 24 h before the experiment 25 ng/mL PMA ((phorbol 12-myristate 13-acetate, purchased from Sigma Aldrich) was added to the medium to induce eosinophil granulation and differentiation (Ohtsu et al., 1993; Zimmermann et al., 2000).
Half-million cells were aliquoted per point in a 24 well plate; each experiment was performed in triplicate and carried out in parallel with eosinophils differentiated and non differentiated with PMA (25 ng/mL, 24 h). Cells were suspended in low serum medium (RPMI-1640, 0.1% (v/v) FBS). TNF-α was used to induce cytokine secretion as previously described by Steube et al. (2000), and the net release was obtained by comparison to the basal (non-TNF-α treated). In the first experiment we evaluated the concentration and time relation between TNF-α stimulation and cytokine release. Therefore, 5, 10, and 25 ng/mL of TNF-α was administered to the cells at 0, ½, 1, 2, 3, 6, 12 and 24 h (data not shown). An aliquot of 150 μL of supernate was collected for cytokines' analysis. […] Differentiated and non-differentiated EoL-1 cells were exposed from 0.1 to 2.3 mM levocabastine ([…]Levocabastine 0.05% solution eye drops containing cyclodextrins, without benzalkonium chloride), and aliquots of the supernates were collected after 12 and 24 h. The content of cytokines at time zero was estimated by treating the cells with 400 nM calcimycin (A-23187), which is a cytolytic agent that frees all the mediators from the cytoplasmic compartment. In addition, for each experiment we tested the effect of the vehicle, which was added to the wells in a concentration equal to the maximum amount used for drug dilution.
Samples (supernates 12 and 24 h) in triplicate were analyzed using Luminex 200™ (Luminex, Austin, Tex.) and Beadview software v1.0 (Upstate Cell Signaling Solutions, Temecula, Calif.).
All data are presented as mean±SEM for the indicated number of experiments. Statistical significance was determined by Newman-Keuls test after ANOVA using GraphPad Prism (version 3.0; GraphPad Software Inc., San Diego, Calif., USA). P-values<0.05 were considered to be significant.

[1] = TNF-α 5 ng + Levocabastine 2 mM vs TNF-α
[2] = TNF-α 10 ng + Levocabastine 2 mM vs TNF-α
[3] = TNF-α 20 ng + Levocabastine 2 mM vs TNF-α
[4] = TNF-α 5, 10, 20 ng + Levocabastine 2 mM vs TNF-α

**Q.** With `C[C@@H]1CN([C@H]2CC[C@](C#N)(c3ccc(F)cc3)CC2)CC[C@]1(C(=O)O)c1ccccc1` [Levocabastine, levocabastine] as the molecule, how does the “IL-12p40 (PMA), p of decrement” value (Levocabastine 2 mM vs TNF-α) read?
**A.** P < 0.001

**Q.** What about the “IP-10 (PMA), p of decrement” value (Levocabastine 2 mM vs TNF-α) of the same molecule?
**A.** ns

**Q.** What about the “MCP-1 (PMA), p of decrement” value (Levocabastine 2 mM vs TNF-α) of the same molecule?
**A.** ns

**Q.** What about the “MIP-1α (PMA), p of decrement” value (Levocabastine 2 mM vs TNF-α) of the same molecule?
**A.** Increase

**Q.** What about the “MIP-1β (PMA), p of decrement” value (Levocabastine 2 mM vs TNF-α) of the same molecule?
**A.** Increase

**Q.** And the “RANTES (PMA), p of decrement” value (Levocabastine 2 mM vs TNF-α)?
**A.** Increase

**Q.** And the “TGF-α (PMA), p of decrement” value (Levocabastine 2 mM vs TNF-α)?
**A.** ns

**Q.** And the “VEGF (PMA), p of decrement” value (Levocabastine 2 mM vs TNF-α)?
**A.** P < 0.001

**Q.** What about the “Fractalkine (PMA), p of decrement” value [1] of the same molecule?
**A.** ns

**Q.** And the “G-CSF (PMA), p of decrement” value [1]?
**A.** ns

**Q.** And the “GM CSF (PMA), p of decrement” value [1]?
**A.** ns

**Q.** What about the “IL-1β (PMA), p of decrement” value [1] of the same molecule?
**A.** ns

**Q.** What about the “IL-5 (PMA), p of decrement” value [1] of the same molecule?
**A.** ns

**Q.** And the “IL-6 (PMA), p of decrement” value [1]?
**A.** ns

**Q.** What about the “IL-7 (PMA), p of decrement” value [1] of the same molecule?
**A.** ns

**Q.** And the “IL-8 (PMA), p of decrement” value [1]?
**A.** P < 0.001

**Q.** What about the “IL-10 (PMA), p of decrement” value [1] of the same molecule?
**A.** ns

**Q.** And the “IL-12p40 (PMA), p of decrement” value [1]?
**A.** ns

**Q.** What about the “IP-10 (PMA), p of decrement” value [1] of the same molecule?
**A.** ns

**Q.** And the “MCP-1 (PMA), p of decrement” value [1]?
**A.** ns

**Q.** What about the “MIP-1α (PMA), p of decrement” value [1] of the same molecule?
**A.** ns

**Q.** What about the “MIP-1β (PMA), p of decrement” value [1] of the same molecule?
**A.** ns

**Q.** What about the “TGF-α (PMA), p of decrement” value [1] of the same molecule?
**A.** ns

**Q.** And the “VEGF (PMA), p of decrement” value [1]?
**A.** P < 0.05

**Q.** What about the “Fractalkine (PMA), p of decrement” value [2] of the same molecule?
**A.** ns

**Q.** What about the “G-CSF (PMA), p of decrement” value [2] of the same molecule?
**A.** ns

**Q.** And the “GM CSF (PMA), p of decrement” value [2]?
**A.** ns

**Q.** And the “IL-1β (PMA), p of decrement” value [2]?
**A.** ns

**Q.** And the “IL-5 (PMA), p of decrement” value [2]?
**A.** ns

**Q.** And the “IL-6 (PMA), p of decrement” value [2]?
**A.** ns

**Q.** And the “IL-7 (PMA), p of decrement” value [2]?
**A.** ns

**Q.** And the “IL-8 (PMA), p of decrement” value [2]?
**A.** P < 0.001

**Q.** And the “IL-10 (PMA), p of decrement” value [2]?
**A.** ns

**Q.** What about the “IL-12p40 (PMA), p of decrement” value [2] of the same molecule?
**A.** ns

**Q.** What about the “IP-10 (PMA), p of decrement” value [2] of the same molecule?
**A.** ns

**Q.** And the “MCP-1 (PMA), p of decrement” value [2]?
**A.** ns

**Q.** What about the “MIP-1α (PMA), p of decrement” value [2] of the same molecule?
**A.** ns

**Q.** And the “MIP-1β (PMA), p of decrement” value [2]?
**A.** ns

**Q.** What about the “TGF-α (PMA), p of decrement” value [2] of the same molecule?
**A.** ns

**Q.** And the “VEGF (PMA), p of decrement” value [2]?
**A.** ns

**Q.** And the “Fractalkine (PMA), p of decrement” value [3]?
**A.** ns

**Q.** What about the “G-CSF (PMA), p of decrement” value [3] of the same molecule?
**A.** ns

**Q.** What about the “GM CSF (PMA), p of decrement” value [3] of the same molecule?
**A.** ns

**Q.** And the “IL-1β (PMA), p of decrement” value [3]?
**A.** ns

**Q.** What about the “IL-5 (PMA), p of decrement” value [3] of the same molecule?
**A.** ns

**Q.** And the “IL-6 (PMA), p of decrement” value [3]?
**A.** ns

**Q.** And the “IL-7 (PMA), p of decrement” value [3]?
**A.** ns

**Q.** And the “IL-8 (PMA), p of decrement” value [3]?
**A.** P < 0.001

**Q.** What about the “IL-10 (PMA), p of decrement” value [3] of the same molecule?
**A.** ns

**Q.** And the “IL-12p40 (PMA), p of decrement” value [3]?
**A.** ns

**Q.** What about the “IP-10 (PMA), p of decrement” value [3] of the same molecule?
**A.** ns

**Q.** What about the “MCP-1 (PMA), p of decrement” value [3] of the same molecule?
**A.** ns

**Q.** What about the “MIP-1α (PMA), p of decrement” value [3] of the same molecule?
**A.** ns

**Q.** And the “MIP-1β (PMA), p of decrement” value [3]?
**A.** ns

**Q.** And the “TGF-α (PMA), p of decrement” value [3]?
**A.** ns

**Q.** What about the “VEGF (PMA), p of decrement” value [3] of the same molecule?
**A.** P < 0.05

**Q.** What about the “IL-1ra (PMA), p of decrement” value [4] of the same molecule?
**A.** increase of cytokine secretion

**Q.** And the “IL-1α (PMA), p of decrement” value [4]?
**A.** increase of cytokine secretion

**Q.** And the “RANTES (PMA), p of decrement” value [4]?
**A.** increase of cytokine secretion

**Q.** What about the “Fractalkine (PMA), p of decrement” value (TNF-α vs Lev 0.1 mM) of the same molecule?
**A.** ns

**Q.** And the “IL-1ra (PMA), p of decrement” value (TNF-α vs Lev 0.1 mM)?
**A.** ns

**Q.** And the “IL-1α (PMA), p of decrement” value (TNF-α vs Lev 0.1 mM)?
**A.** ns

**Q.** And the “IL-1β (PMA), p of decrement” value (TNF-α vs Lev 0.1 mM)?
**A.** p < 0.05

**Q.** What about the “IL-5 (PMA), p of decrement” value (TNF-α vs Lev 0.1 mM) of the same molecule?
**A.** ns

**Q.** What about the “IL-7 (PMA), p of decrement” value (TNF-α vs Lev 0.1 mM) of the same molecule?
**A.** ns

**Q.** What about the “IL-8 (PMA), p of decrement” value (TNF-α vs Lev 0.1 mM) of the same molecule?
**A.** ns
